Calls of active or inactive are those of the source.
Assays:
[1] = alpha-synuclein stem-loop luciferase translation blockers – H4 neuroglioma cells, luminescence, confirmation (AID 1988); assay type: functional, cell-based
[2] = luciferase reporter signal suppression in cells – H4 neuroglioma cells, luminescence, dose response (AID 1990); assay type: functional, cell-based
[3] = alpha-synuclein stem-loop translation blockers – luminescence, H4 neuroglioblastoma cells, dose confirmation, confirmation (AID 2454); assay type: functional, cell-based;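 note: H4 neuroglioblastoma cells carrying an alpha-synuclein 5'UTR luciferase reporter; potency for inhibition of the luciferase signal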
[4] = Luminescence Cell-Based Dose Response HTS to Identify Inhibitors of 5'UTR Stem-Loop Driven Prion Protein mRNA Translation in H4 Neuroglioblastoma Cells. [Related pubchem assays: 1827 (Project Summary), 1813 (Primary HTS)]; assay type: functional
[5] = HEK-293T viability loss after treatment – luminescence, T-cell screen hits, cytotoxicity control for TCR NF-kB inhibitor project, dose response (AID 489026); assay type: functional, cell-based;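 note: cells exposed to compound about 14 hours before the viability readout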
[6] = luciferase reporter signal reduction – luminescence, H4-C neuroglioblastoma cells, dose response (AID 2458); assay type: functional, cell-based;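 note: H4 neuroglioblastoma cells stably carrying a luciferase reporter gene fusion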
cells = assay type: functional, cell-based
[7] = target: Serine/threonine-protein phosphatase (Homo sapiens, UniProt Q9BPW0); test: Counterscreen for inhibitors of PP1: fluorescence-based biochemical high throughput dose response assay to identify inhibitors of Protein Phosphatase 5 (PP5). [Related pubchem assays: 2034 (Summary (PP5 inhibitors)), 1987 (PP5 inhibitors in singlate), 2235 (PP1 inhibitors in singlate)]
[8] = target: Serine/threonine-protein phosphatase PP1-alpha catalytic subunit (Homo sapiens, UniProt P62136); test: inhibition of protein phosphatase 1 activity – biochemical, fluorescence, dose response (AID 2403);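 note: phosphatase turnover of OMFP into fluorescent 3-O-methylfluorescein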
[9] = target: Transitional endoplasmic reticulum ATPase (Homo sapiens, UniProt P55072); test: p97 ATPase inhibitors, dose response, biochemical (AID 1534)
[10] = target: Induced myeloid leukemia cell differentiation protein Mcl-1 (Homo sapiens, UniProt Q07820); assay type: functional
[11] = target: Transitional endoplasmic reticulum ATPase (Homo sapiens, UniProt P55072, C522A); test: C522A mutant p97 ATPase inhibitors, dose response, counter-screen for p97 inhibitor project, biochemical, luminescence (AID 1544)
[12] = target: Heat shock cognate 71 kDa protein (Homo sapiens, UniProt P11142); test: In Vitro Hsc70 Dose Response Fluorescence Polarization Assay. [Related pubchem assays: 1072 ]
[13] = target: Glyceraldehyde-3-phosphate dehydrogenase (Homo sapiens, UniProt P04406)
[14] = target: Heat shock 70 kDa protein 1A (Homo sapiens, UniProt P0DMV8); test: inhibition of Hsp70 binding activity – biochemical, fluorescence polarization, SAR follow-up (AID 1072)
[15] = target: T1, Sentrin-specific protease 7 (Homo sapiens, UniProt Q9BQF6); test: inhibition of human SENP7 cleavage activity – biochemical, luminescence, SAR follow-up (AID 504497); assay type: functional
T1 sequence (Q9BQF6 whole entry): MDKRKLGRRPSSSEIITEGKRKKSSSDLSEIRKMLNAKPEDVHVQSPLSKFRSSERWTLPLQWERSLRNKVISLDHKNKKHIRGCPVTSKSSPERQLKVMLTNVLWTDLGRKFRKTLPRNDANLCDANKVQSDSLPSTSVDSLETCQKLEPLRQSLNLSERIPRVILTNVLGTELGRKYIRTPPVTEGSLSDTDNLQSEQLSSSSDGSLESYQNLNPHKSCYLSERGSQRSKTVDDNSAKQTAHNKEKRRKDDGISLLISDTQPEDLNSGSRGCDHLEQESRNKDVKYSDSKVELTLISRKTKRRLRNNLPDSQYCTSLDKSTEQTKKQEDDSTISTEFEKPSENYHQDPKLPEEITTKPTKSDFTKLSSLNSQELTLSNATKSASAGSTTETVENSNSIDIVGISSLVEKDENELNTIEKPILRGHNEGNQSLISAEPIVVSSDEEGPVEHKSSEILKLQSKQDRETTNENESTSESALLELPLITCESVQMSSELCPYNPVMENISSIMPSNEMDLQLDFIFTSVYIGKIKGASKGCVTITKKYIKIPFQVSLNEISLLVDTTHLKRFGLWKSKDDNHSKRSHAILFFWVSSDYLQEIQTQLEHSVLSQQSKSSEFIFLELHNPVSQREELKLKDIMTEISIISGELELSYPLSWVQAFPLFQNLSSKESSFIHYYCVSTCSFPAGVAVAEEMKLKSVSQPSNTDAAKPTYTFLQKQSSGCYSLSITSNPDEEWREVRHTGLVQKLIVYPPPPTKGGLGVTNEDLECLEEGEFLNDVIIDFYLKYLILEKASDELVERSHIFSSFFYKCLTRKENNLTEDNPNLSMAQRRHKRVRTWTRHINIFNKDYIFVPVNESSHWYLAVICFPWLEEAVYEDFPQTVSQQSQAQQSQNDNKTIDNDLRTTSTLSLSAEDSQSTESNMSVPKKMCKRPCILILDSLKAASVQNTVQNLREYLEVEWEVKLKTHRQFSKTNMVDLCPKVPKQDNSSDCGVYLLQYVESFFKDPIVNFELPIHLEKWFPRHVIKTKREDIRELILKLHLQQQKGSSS

[16] = toxicity toward HepG2 liver cells – cell-based, plate reader, cherry-pick, antagonist series, cytotoxicity control, dose response (AID 743416); assay type: functional
[17] = Luminescence-based counterscreen assay for KLF5 inhibitors: dose response cell-based high throughput screening assay to identify cytotoxic compounds using the IEC-6 intestinal epithelial cell line. [Related pubchem assays: 1700 (Primary screen.), 1834 (Confirmation screen.), 1858 (Summary AID.), 1905 (Counterscreen.)]; assay type: functional
Caspase-3 = target: T2, Caspase-3 (Homo sapiens, UniProt P42574); test: SAR Analysis of small molecule inhibitors of Sentrin-specific proteases (SENPs) using a Caspase-3 Selectivity assay. [Related pubchem assays (depositor defined):AID2540, AID2599, AID434973, AID489001]; assay type: functional
T2 sequence (P42574 whole entry): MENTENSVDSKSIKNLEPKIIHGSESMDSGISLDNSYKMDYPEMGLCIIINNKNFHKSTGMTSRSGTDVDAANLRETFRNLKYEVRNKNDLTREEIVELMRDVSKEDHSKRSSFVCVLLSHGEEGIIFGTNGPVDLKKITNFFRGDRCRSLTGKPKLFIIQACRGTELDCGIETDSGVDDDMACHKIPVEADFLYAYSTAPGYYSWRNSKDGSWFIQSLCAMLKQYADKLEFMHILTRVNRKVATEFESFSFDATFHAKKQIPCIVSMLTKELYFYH

[18] = blockers of bursicon-stimulated LGR2 cAMP reporter – cell-based, HEK293, CRE-luciferase reporter, cherry pick, set 2, dose response (AID 743343); assay type: functional;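 note: transfected cells were stimulated with diluted bursicon conditioned medium after compound addition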
[19] = target: T3, Rac GTPase-activating protein 1 (Homo sapiens, UniProt Q9H0H5); test: blockers of MgcRacGAP-driven Rac1 GTP hydrolysis – biochemical, ADP Hunter fluorescence, primary and confirmatory, confirmation (AID 624330); assay type: functional
T3 sequence (Q9H0H5 whole entry): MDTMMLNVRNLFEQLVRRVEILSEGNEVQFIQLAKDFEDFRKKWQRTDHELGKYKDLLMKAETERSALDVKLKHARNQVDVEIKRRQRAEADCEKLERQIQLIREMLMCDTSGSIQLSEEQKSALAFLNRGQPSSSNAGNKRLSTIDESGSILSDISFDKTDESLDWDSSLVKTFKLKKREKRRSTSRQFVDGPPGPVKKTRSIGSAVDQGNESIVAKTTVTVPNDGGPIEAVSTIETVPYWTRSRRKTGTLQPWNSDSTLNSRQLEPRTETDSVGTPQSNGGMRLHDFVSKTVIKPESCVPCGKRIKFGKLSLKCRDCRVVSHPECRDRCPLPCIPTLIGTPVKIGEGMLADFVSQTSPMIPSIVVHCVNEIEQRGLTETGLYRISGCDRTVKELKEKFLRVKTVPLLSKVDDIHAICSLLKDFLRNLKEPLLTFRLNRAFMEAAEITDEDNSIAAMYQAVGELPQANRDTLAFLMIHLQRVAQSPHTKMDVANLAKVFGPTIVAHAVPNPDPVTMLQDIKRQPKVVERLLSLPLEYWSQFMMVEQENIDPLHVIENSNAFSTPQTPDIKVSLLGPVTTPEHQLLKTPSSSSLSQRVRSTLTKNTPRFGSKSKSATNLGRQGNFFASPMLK

[20] = target: T4, Sentrin-specific protease 8 (Homo sapiens, UniProt Q96LD8); test: inhibition of human SENP8 cleavage activity – biochemical, luminescence, SAR follow-up (AID 504501); assay type: functional
T4 sequence (Q96LD8 whole entry): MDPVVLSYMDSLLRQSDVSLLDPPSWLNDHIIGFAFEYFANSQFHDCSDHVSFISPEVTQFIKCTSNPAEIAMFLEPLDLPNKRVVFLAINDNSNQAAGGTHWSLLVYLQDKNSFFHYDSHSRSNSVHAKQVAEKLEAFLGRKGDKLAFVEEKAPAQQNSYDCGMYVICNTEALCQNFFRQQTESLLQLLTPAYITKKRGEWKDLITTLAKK

[21] = blockade of melanocortin 4 receptor signaling – cell-based, plate reader, cherry pick, counter-screen for LGR2 antagonist project, dose response (AID 743444); assay type: functional;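 note: transfected HEK 293 cells stimulated with alpha-MSH peptide; potency of inhibitors of the alpha-MSH evoked signal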
[22] = target: T5, Sentrin-specific protease 6 (Homo sapiens, UniProt Q9GZR1); test: SAR Analysis of small molecule inhibitors of Sentrin-specific protease 6 (SENP6) using a Luminescent assay. [Related pubchem assays (depositor defined):AID2582, AID2599]; assay type: functional
T5 sequence (Q9GZR1 whole entry): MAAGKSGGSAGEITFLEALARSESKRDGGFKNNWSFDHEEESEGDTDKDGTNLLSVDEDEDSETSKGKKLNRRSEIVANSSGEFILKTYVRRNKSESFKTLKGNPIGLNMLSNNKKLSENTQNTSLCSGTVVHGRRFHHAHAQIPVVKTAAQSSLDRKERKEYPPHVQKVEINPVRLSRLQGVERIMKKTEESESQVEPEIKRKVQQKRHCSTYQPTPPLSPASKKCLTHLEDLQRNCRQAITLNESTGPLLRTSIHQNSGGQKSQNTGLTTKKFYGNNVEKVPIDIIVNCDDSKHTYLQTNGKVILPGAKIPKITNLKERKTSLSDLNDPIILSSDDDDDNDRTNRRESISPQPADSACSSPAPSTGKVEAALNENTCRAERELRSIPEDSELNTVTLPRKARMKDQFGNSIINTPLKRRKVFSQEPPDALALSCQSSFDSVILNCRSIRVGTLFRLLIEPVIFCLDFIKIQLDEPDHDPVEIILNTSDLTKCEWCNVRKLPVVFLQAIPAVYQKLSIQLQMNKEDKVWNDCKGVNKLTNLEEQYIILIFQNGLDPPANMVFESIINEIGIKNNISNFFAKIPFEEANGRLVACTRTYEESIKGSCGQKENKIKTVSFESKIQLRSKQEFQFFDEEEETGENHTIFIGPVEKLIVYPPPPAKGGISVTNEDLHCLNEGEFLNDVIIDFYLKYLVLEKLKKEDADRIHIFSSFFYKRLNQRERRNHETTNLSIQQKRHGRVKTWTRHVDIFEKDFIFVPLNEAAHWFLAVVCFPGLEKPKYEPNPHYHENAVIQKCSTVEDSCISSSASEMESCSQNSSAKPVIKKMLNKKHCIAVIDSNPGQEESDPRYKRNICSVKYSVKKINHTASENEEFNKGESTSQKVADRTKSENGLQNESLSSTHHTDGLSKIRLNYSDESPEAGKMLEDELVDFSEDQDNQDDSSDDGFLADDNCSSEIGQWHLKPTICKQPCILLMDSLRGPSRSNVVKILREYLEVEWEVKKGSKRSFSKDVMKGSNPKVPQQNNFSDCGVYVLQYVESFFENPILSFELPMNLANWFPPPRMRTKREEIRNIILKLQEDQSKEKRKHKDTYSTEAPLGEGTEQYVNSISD

Cytochrome P450 1A2 = target: T6, Cytochrome P450 1A2 (Homo sapiens, UniProt P05177);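 note: PubChem cytochrome P450 panel assay, CYP1A2 panel member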
T6 sequence (P05177 whole entry): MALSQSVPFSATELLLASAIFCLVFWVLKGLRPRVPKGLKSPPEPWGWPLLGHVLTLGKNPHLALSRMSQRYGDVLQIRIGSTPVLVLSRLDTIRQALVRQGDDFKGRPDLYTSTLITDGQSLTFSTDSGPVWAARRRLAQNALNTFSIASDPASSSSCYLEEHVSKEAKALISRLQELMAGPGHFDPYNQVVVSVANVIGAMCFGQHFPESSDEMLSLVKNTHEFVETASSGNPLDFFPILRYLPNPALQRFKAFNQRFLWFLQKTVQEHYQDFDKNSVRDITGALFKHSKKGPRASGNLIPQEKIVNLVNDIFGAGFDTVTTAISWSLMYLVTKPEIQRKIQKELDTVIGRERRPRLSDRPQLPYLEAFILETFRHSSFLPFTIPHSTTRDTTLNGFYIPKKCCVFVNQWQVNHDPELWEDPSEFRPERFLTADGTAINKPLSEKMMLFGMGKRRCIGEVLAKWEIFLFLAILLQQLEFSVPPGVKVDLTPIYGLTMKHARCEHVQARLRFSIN

Cytochrome P450 2D6 = Cytochrome P450 2D6 (Homo sapiens, UniProt P10635); test: qHTS Assay for Inhibitors and Substrates of Cytochrome P450 2D6. [Related pubchem assays: 410 ]; assay type: ADME; details: read-out: Potency
Chain of Cytochrome P450 2D6 (P10635 whole entry): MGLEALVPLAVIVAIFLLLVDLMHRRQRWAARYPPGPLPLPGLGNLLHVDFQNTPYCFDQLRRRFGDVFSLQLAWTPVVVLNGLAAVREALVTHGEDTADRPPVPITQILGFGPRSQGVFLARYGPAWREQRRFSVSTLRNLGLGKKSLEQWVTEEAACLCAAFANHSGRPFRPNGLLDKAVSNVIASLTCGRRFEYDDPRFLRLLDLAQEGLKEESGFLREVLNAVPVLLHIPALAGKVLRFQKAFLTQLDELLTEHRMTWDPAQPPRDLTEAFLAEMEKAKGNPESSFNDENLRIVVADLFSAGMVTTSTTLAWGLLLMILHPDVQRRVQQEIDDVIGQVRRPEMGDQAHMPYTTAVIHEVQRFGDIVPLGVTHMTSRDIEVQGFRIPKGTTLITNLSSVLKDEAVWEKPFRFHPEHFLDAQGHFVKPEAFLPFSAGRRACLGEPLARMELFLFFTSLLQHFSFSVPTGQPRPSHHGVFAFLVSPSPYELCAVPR

Chain of Glyceraldehyde-3-phosphate dehydrogenase (P04406 whole entry): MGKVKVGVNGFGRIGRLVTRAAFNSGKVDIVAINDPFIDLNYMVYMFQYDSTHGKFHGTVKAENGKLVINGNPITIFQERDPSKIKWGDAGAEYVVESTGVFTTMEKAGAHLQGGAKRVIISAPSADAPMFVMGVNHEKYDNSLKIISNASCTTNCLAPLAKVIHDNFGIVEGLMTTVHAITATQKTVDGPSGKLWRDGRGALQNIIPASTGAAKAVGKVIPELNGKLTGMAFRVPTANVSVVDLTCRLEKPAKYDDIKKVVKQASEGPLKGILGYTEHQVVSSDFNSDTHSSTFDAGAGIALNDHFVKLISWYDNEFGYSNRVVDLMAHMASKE
Chain of Heat shock cognate 71 kDa protein (P11142 whole entry): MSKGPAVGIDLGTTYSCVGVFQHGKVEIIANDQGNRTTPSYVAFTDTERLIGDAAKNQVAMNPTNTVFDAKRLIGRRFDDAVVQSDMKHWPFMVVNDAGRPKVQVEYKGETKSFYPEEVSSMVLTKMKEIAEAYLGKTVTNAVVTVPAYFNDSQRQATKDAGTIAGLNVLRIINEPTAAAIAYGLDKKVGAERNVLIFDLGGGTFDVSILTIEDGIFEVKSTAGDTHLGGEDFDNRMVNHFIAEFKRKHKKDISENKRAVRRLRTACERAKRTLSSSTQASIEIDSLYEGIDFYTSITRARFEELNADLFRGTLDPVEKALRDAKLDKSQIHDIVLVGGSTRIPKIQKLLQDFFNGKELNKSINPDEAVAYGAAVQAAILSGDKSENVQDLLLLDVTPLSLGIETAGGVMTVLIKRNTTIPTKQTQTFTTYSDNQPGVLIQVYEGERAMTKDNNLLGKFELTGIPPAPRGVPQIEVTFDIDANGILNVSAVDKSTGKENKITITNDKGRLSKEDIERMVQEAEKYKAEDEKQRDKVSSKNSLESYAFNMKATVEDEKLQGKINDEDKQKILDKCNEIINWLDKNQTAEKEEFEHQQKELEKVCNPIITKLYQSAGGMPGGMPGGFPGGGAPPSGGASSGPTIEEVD
Chain of Serine/threonine-protein phosphatase (Q9BPW0 whole entry): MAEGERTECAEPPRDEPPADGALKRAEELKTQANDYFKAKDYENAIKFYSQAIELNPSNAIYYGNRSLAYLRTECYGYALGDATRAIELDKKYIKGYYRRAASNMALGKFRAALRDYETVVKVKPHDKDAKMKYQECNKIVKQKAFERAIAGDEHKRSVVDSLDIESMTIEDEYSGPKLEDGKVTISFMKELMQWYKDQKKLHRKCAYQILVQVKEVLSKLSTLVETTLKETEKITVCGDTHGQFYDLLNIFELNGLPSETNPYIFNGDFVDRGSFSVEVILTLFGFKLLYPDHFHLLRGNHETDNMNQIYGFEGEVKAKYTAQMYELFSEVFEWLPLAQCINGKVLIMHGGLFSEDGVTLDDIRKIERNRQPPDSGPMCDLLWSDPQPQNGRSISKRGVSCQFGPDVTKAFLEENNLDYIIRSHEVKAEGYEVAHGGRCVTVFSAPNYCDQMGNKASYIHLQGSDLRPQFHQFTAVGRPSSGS
Chain of Transitional endoplasmic reticulum ATPase (Homo sapiens, UniProt P55072) (P55072 whole entry): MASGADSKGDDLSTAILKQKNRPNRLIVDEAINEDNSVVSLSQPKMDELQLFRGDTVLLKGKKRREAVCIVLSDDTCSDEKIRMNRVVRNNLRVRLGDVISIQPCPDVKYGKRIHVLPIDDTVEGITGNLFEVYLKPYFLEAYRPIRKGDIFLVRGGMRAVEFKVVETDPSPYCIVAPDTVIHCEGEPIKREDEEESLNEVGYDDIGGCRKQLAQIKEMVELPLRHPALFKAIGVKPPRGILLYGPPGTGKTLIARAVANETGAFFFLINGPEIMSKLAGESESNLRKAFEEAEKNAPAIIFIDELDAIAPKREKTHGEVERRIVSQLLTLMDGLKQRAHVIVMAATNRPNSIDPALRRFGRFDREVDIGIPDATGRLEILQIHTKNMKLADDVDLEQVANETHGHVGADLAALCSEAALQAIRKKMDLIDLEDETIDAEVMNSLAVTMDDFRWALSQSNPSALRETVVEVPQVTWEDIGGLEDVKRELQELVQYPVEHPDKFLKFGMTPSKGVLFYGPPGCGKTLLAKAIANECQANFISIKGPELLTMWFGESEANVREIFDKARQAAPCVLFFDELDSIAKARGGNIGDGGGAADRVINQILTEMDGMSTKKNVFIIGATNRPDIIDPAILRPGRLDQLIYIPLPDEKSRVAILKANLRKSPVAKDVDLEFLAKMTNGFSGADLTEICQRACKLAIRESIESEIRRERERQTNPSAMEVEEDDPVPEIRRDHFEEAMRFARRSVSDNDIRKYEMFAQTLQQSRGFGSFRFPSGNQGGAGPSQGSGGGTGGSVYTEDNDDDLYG
Chain of Transitional endoplasmic reticulum ATPase (Homo sapiens, UniProt P55072, C522A) (P55072 2-806 C522A limits assumed): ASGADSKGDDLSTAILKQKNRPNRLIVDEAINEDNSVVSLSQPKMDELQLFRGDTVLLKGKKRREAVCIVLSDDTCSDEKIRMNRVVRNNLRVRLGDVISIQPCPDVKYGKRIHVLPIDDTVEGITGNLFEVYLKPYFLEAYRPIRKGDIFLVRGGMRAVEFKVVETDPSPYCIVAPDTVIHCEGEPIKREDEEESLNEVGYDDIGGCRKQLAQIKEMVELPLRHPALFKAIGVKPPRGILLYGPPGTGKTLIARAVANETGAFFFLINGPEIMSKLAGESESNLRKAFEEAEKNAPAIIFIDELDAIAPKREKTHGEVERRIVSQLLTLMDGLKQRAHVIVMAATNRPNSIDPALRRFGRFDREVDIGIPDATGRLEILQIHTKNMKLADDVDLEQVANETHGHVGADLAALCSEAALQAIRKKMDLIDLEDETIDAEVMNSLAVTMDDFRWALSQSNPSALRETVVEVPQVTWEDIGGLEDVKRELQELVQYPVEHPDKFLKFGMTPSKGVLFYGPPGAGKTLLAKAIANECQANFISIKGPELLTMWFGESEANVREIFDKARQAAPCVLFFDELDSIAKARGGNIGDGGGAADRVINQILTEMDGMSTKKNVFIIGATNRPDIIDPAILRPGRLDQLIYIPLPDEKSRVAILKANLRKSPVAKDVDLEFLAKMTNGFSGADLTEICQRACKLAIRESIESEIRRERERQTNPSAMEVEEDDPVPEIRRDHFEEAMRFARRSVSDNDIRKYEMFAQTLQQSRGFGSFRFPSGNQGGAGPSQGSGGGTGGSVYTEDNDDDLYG
Chain of Induced myeloid leukemia cell differentiation protein Mcl-1 (Q07820 whole entry): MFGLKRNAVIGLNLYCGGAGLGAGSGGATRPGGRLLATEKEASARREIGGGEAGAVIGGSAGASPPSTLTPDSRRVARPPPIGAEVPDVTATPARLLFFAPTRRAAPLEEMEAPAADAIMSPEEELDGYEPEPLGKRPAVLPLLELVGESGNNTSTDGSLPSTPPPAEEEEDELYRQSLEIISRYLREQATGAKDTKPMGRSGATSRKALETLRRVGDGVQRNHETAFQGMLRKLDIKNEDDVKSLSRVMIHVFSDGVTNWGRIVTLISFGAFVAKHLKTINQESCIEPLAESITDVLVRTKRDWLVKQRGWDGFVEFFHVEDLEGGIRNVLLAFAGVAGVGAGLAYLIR
Chain of Serine/threonine-protein phosphatase PP1-alpha catalytic subunit (P62136 whole entry): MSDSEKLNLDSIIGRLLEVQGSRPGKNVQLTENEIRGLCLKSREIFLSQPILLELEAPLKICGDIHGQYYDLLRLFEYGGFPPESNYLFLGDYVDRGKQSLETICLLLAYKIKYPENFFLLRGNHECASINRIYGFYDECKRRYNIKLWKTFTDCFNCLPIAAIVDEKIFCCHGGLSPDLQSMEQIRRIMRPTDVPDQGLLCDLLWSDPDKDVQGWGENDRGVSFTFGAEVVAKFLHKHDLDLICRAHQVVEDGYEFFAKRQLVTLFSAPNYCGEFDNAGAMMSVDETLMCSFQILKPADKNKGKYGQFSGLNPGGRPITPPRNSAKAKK
Chain of Heat shock 70 kDa protein 1A (P0DMV8 whole entry): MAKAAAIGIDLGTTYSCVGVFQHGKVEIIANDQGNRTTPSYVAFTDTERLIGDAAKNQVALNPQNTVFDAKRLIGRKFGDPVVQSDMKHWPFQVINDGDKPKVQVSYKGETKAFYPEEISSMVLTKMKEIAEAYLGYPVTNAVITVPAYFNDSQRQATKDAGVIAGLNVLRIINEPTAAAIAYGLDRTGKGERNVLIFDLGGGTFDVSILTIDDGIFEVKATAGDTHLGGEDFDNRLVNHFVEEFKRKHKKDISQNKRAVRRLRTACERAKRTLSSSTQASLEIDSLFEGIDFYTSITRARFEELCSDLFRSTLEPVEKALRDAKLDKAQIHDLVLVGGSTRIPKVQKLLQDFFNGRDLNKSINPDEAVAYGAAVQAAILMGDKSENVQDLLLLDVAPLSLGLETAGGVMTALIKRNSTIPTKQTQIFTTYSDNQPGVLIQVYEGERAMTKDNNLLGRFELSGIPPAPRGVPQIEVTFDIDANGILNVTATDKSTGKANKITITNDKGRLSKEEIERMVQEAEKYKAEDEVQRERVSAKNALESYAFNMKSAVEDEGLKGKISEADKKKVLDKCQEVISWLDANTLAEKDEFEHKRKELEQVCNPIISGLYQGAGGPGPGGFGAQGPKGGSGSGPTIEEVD

CCOc1cccc(-c2nnc3n2N=C(c2cc(OC)ccc2OC)CS3)c1
EC50 [1]: < 0.1 µM (active)
EC50 [2]: 10.5 µM (active)
EC50 [3]: 9.53 µM (active)
EC50 [4]: 13.1 µM (active)
IC50 [5]: > 80 µM (inactive)
EC50 [6]: > 12 µM (not active)
EC50 (cells): > 12 µM (not active)

COc1cnc(-c2ccccn2)nc1Oc1cccc(C(F)(F)F)c1
IC50 [7]: > 67 µM (not active)
IC50 [8]: 7.79 µM (active)

Cc1cc2c(C(C)C)c(O)c(O)c(C=O)c2c(O)c1-c1c(C)cc2c(C(C)C)c(O)c(O)c(C=O)c2c1O
IC50 [9]: 5.39 µM (active)
IC50 [10]: 1.36 µM (active)
IC50 [11]: 15.5 µM (not active)

COc1ccc(NC(=O)C(=O)O)cc1
IC50 [12]: > 100 µM (not active)
IC50 [13]: > 100 µM (not active)
IC50 [14]: > 100 µM (not active)

O=C(O)c1ccc(N/N=C/c2c[nH]c3ccccc23)cc1
IC50 [15]: 0.985 µM (active)
AC50 [16]: > 52 µM (inactive)
IC50 [17]: > 39.8 µM (not active)
IC50 (Caspase-3): 0.906 µM (active)
AC50 [18]: 2.15 µM (active)
IC50 [19]: 47.7 µM (active)
IC50 [20]: 0.794 µM (active)
AC50 [21]: 2.25 µM (active)
IC50 [22]: 0.869 µM (active)

CCOC(=O)C1=C(C)NC(C)=C(C(=O)OC)[C@H]1c1cccc([N+](=O)[O-])c1 [(R)-NITRENDIPINE]
AC50 (Cytochrome P450 1A2): 31.6 µM (inconclusive)
AC50 (Cytochrome P450 2D6): 10 µM (inconclusive)

Reference: ChEMBL document CHEMBL1201862, “PubChem BioAssay data set” (2004)
